{"source": "patent US12708601B2", "about": "“Mangosteen pericarp extract and process for its preparation thereof” (JUNHONG BIOTECHNOLOGY CO., LTD., priority 2020, dated 2026)", "tested_on": "B16F10 melanoma cells", "assay": "Cell viability assay (MTT) in B16F10 cells treated with α-MSH with or without aqua choice", "assay_type": "cell-based, mouse", "conditions": "100 nM, 24 hours of incubation", "procedure": "The mouse B16F10 melanoma cells were purchased from Bioresource Collection and Research Center (BCRC, Hsinchu, Taiwan) and cultured using Dulbecco's Modified Eagle Medium (DMEM, Gibco, MA, USA) supplemented with 10% fetal bovine serum and 1% antibiotics (100 units/mL penicillin, […], 0.25 μg/mL amphotericin) in a humidified atmosphere of 5% CO2 at 37° C. The control group was untreated with alpha-melanocyte-stimulating hormone (α-MSH) and aquachoice; The different treatment groups were all treated with α-MSH and different doses aquachoice.\nCells were seeded at a density of […] in 96-well plate for 24 h and then treated with aqua choice at different concentrations for 24 and 48 h. At the end of the treatment, the medium was removed and 100 μL 3-(4,5-Dimethylthiazol-2-yl)-2,5-Diphenyltetrazolium bromide (MTT) solution (Sigma-Aldrich, USA) was treated. MTT reagent was cleanly removed after incubation in a 37° C. incubator for 3 hours, and then 100 μL of DMSO per well was added to dissolve all of the formazan generated in the wells. The result was measured by absorbance at 570 nm with an ELISA reader.", "data": [{"substance": "alpha-melanocyte-stimulating hormone [α-MSH]", "values": [{"measurement": "increase in cell viability", "result": "~ 1.55 fold"}]}]}
